pKi: −log10 of the molar value.
Tests used:
TYK2 = TYK2 (Homo sapiens (Human), UniProt P29597); test: Tyk2 activity inhibition assay (radioactive kinase assay / Caliper assay); format: biochemical
In short: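 Radiometric format: TYK2 with peptide substrate (20 μM) and 33P-ATP at 10 μM in HEPES pH 7.5, 1% DMSO, 120 min at room temp, P81 paper capture. Caliper mobility-shift format: TYK2 9.75 nM, peptide 30 at 3 uM, ATP 16 uM (also 1 mM), 25 min at 28° C.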

JAK2 = JAK2 (Homo sapiens (Human), UniProt O60674); test: JAK2 activity inhibition assay (radioactive kinase assay / Caliper assay); format: biochemical; conditions: read-out: JAK2 Ki
JAK2, sequence (O60674 whole entry): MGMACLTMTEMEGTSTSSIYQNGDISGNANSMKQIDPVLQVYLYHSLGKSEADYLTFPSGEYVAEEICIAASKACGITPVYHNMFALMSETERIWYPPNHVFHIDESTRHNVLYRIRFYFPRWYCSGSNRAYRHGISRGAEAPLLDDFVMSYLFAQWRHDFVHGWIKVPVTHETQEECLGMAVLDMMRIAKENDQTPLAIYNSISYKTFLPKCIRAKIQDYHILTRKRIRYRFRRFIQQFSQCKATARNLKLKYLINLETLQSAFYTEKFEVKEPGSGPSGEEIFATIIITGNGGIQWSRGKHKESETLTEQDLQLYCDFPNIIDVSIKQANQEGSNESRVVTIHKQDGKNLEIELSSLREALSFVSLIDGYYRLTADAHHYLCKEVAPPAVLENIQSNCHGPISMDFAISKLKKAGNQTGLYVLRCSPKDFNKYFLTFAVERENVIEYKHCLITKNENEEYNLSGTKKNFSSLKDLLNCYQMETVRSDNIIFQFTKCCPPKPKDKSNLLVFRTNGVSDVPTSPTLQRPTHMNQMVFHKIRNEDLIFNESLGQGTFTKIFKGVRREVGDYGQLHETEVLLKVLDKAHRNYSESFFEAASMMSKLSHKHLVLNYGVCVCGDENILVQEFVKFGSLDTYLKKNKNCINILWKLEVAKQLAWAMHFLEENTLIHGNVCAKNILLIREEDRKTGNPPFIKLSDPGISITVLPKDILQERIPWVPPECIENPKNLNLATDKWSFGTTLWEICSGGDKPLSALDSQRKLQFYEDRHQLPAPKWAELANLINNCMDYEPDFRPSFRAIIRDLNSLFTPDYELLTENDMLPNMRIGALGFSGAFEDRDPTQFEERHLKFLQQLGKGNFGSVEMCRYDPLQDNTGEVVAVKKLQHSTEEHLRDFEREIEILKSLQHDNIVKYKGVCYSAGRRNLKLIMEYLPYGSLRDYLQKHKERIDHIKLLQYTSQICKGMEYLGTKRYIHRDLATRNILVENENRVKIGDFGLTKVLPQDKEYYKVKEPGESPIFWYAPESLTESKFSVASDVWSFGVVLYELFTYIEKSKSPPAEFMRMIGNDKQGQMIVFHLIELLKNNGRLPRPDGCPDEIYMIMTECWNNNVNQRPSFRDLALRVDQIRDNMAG
In short: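 Mobility-shift (Caliper) read-out of phosphorylated peptide substrate. Compound diluted in 25 mM HEPES pH 7.5, 0.01% Brij-35, 0.01% Triton, 0.5 mM EGTA; enzyme added, then peptide plus ATP in 10 mM MgCl2. Incubated 25 min at 28° C, stopped with EDTA buffer.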

TYK2, sequence (P29597 whole entry): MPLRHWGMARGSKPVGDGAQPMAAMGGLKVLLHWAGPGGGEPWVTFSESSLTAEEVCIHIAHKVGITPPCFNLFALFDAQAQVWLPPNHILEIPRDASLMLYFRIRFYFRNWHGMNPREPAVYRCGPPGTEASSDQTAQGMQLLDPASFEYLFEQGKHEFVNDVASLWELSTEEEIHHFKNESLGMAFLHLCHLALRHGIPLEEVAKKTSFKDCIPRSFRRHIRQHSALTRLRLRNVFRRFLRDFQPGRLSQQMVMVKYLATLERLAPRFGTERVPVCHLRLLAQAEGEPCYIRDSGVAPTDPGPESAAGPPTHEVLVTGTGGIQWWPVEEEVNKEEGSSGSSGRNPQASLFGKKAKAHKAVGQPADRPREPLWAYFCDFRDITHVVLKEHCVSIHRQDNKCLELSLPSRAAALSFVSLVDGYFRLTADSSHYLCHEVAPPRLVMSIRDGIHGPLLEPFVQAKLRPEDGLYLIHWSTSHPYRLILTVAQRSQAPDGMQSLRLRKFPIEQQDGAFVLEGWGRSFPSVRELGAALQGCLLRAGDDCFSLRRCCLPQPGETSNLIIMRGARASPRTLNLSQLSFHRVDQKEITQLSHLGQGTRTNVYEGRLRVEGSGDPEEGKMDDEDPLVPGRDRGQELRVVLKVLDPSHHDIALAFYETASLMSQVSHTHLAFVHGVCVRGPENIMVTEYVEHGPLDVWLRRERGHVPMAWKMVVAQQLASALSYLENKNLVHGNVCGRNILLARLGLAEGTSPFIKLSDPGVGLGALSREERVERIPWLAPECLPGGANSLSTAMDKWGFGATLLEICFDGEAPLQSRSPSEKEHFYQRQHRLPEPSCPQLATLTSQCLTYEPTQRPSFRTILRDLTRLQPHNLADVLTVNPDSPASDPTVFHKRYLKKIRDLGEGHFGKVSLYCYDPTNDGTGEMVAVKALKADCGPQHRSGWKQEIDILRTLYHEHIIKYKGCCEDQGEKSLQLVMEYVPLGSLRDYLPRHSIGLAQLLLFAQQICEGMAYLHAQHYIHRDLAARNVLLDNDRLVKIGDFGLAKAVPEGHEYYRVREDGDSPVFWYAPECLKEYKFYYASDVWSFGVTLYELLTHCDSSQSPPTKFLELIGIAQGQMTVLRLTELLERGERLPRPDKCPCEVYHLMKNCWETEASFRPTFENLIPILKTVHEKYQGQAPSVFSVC

| pKi (TYK2) | pKi (JAK2) | SMILES |
| --- | --- | --- |
| > 8.00 | 7.00 to 8.00 | N[C@H]1CCCN(c2ccc(Nc3cc(-c4c(F)cccc4F)nc4c3C(=O)NC4)nc2)C1 [Compound I-143, (S)-4-((5-(3-aminopiperidin-1-yl)pyridin-2-yl)amino)-2-(2,6-difluorophenyl)-6,7-dihydro-5H-pyrrolo[3,4-b]pyridin-5-one] |
| 7.00 to 8.00 | 6.00 to 7.00 | O=C1NCc2nc(-c3c(F)cccc3F)nc(Nc3ccc(C(=O)N4CCC4)cc3)c21 [Compound I-158, 4-((4-(azetidine-1-carbonyl)phenyl)amino)-2-(2,6-difluoro-phenyl)-6,7-dihydro-5H-pyrrolo[3,4-d]pyrimidin-5-one] |
| > 8.00 | 7.00 to 8.00 | COC(=O)Cc1ccc(Nc2cc(-c3c(F)cccc3Cl)nc3c2C(=O)NC3)nc1 [Compound I-200, methyl 2-(6-((2-(2-chloro-6-fluorophenyl)-5-oxo-6,7-dihydro-5H-pyrrolo[3,4-b]pyridin-4-yl)amino)pyridin-3-yl)acetate] |
| 7.00 to 8.00 | < 6.00 | CCNC(=O)Cc1ccc(Nc2nc(-c3c(F)cccc3F)nc3c2C(=O)NC3)cn1 [Compound I-23, 2-(5-((2-(2,6-difluorophenyl)-5-oxo-6,7-dihydro-5H-pyrrolo[3,4-d]pyrimidin-4-yl)amino)pyridin-2-yl)-N-ethylacetamide] |
| > 8.00 | 6.00 to 7.00 | C[C@@H](CO)NC(=O)Cc1ccc(Nc2nc(-c3c(F)cccc3F)nc3c2C(=O)NC3)cc1 [Compound I-74, (S)-2-(4-((2-(2,6-difluorophenyl)-5-oxo-6,7-dihydro-5H-pyrrolo[3,4-d]pyrimidin-4-yl)amino)phenyl)-N-(1hydroxypropan-2-yl)acetamide] |
| 7.00 to 8.00 | < 6.00 | O=C(O)Cn1cc(Nc2nc(-c3c(F)cccc3F)nc3c2C(=O)NC3)cn1 [Compound I-71, 2-(4-((2-(2,6-difluorophenyl)-5-oxo-6,7-dihydro-5H-pyrrolo[3,4-d]pyrimidin-4-yl)amino)-1H-pyrazol-1-yl)acetic Acid] |
| > 8.00 | 7.00 to 8.00 | CN1CCN[C@@](C)(c2ccc(Nc3nc(-c4c(F)cccc4F)nc4c3C(=O)NC4)cc2)C1=O [Compound I-217, (S)-2-(2,6-difluorophenyl)-4-((4-(2,4-dimethyl-3-oxopiperazin-2-yl)phenyl)amino)-6,7-dihydro-5H-pyrrolo[3,4-d]pyrimidin-5-one] |
| > 8.00 | > 8.00 | CN1CCN[C@@](C)(c2ccc(Nc3cc(-c4c(F)cccc4F)nc4c3C(=O)NC4)nc2)C1=O [Compound I-225, (S)-2-(2,6-difluorophenyl)-4-((5-(2,4-dimethyl-3-oxopiperazin-2-yl)pyridin-2-yl)amino)-6,7-dihydro-5H-pyrrolo[3,4-b]pyridin-5-one] |
| > 8.00 | 7.00 to 8.00 | CN1CCN(C)[C@@](C)(c2ccc(Nc3nc(-c4c(F)cccc4F)nc4c3C(=O)NC4)cc2)C1=O [Compound I-211, (S)-2-(2,6-difluorophenyl)-4-((4-(1,2,4-trimethyl-3-oxopiperazin-2-yl)phenyl)amino)-6,7-dihydro-5H-pyrrolo[3,4-d]pyrimidin-5-one] |
| > 8.00 | 7.00 to 8.00 | O=C1NCc2nc(-c3c(F)cccc3F)cc(Nc3ccc([C@@H]4CCNC4=O)cn3)c21 [Compound I-92, (S)-2-(2,6-difluorophenyl)-4-((5-(2-oxopyrrolidin-3-yl)pyridin-2-yl)amino)-6,7-dihydro-5H-pyrrolo[3,4-b]pyridin-5-one] |
| > 8.00 | 7.00 to 8.00 | CC(C)(O)CNC(=O)Cc1ccc(Nc2nc(-c3c(F)cccc3F)nc3c2C(=O)NC3)cc1 [Compound I-76, 2-(4-((2-(2,6-difluorophenyl)-5-oxo-6,7-dihydro-5H-pyrrolo[3,4-d]pyrimidin-4-yl)amino)phenyl)-N-(2-hydroxy-2-methylpropyl)acetamide] |
| > 8.00 | 7.00 to 8.00 | O=C1NCc2nc(-c3c(F)cccc3F)cc(Nc3ccc(C4CCNC4=O)cn3)c21 (stereo not drawn) [Compound I-133, 2-(2,6-difluorophenyl)-4-((5-(2-oxopyrrolidin-3-yl)pyridin-2-yl)amino)-6,7-dihydro-5H-pyrrolo[3,4-b]pyridin-5-one] |
| > 8.00 | 7.00 to 8.00 | C[C@@]1(c2ccc(Nc3nc(-c4c(F)cccc4F)nc4c3C(=O)NC4)cc2)CCN(C2CCOCC2)C1=O [Compound I-125, (S)-2-(2,6-difluorophenyl)-4-((4-(3-methyl-2-oxo-1-(tetrahydro-2H-pyran-4-yl)pyrrolidin-3-yl)phenyl)amino)-6,7-dihydro-5H-pyrrolo[3,4-d]pyrimidin-5-one] |
| 7.00 to 8.00 | 6.00 to 7.00 | O=C1NCc2nc(-c3c(F)cccc3F)cc(Nc3ccc(C(=O)N4CCOCC4)nc3)c21 [Compound I-280, 2-(2,6-difluorophenyl)-4-((6-(morpholine-4-carbonyl)pyridin-3-yl)amino)-6,7-dihydro-5H-pyrrolo[3,4-b]pyridin-5-one] |
| > 8.00 | 7.00 to 8.00 | CN1CCNC(C)(c2ccc(Nc3nc(-c4c(F)cccc4F)nc4c3C(=O)NC4)cc2)C1=O (stereo not drawn) [Compound I-215, 2-(2,6-difluorophenyl)-4-((4-(2,4-dimethyl-3-oxopiperazin-2-yl)phenyl)amino)-6,7-dihydro-5H-pyrrolo[3,4-d]pyrimidin-5-one] |
| < 6.00 | < 6.00 | O=C1NCc2nc(-c3c(F)cccc3F)nc(N[C@H]3C[C@H](C(=O)O)C3)c21 [Compound I-130, (1r,3r)-3-((2-(2,6-difluorophenyl)-5-oxo-6,7-dihydro-5H-pyrrolo[3,4-d]pyrimidin-4-yl)amino)cyclobutane-1-carboxylic Acid] |
| > 8.00 | 6.00 to 7.00 | O=C(Cc1ccc(Nc2nc(-c3c(F)cccc3F)nc3c2C(=O)NC3)cc1)NC1CCNCC1 [Compound I-11, 2-(4-((2-(2,6-difluorophenyl)-5-oxo-6,7-dihydro-5H-pyrrolo[3,4-d]pyrimidin-4-yl)amino)phenyl)-N-(piperidin-4-yl)acetamide] |
| > 8.00 | 6.00 to 7.00 | O=C1NCc2nc(-c3c(F)cccc3F)nc(Nc3ccc([C@H]4CCN(C5CCC5)C4=O)cc3)c21 [Compound I-118, (R)-4-((4-(1-cyclobutyl-2-oxopyrrolidin-3-yl)phenyl)amino)-2-(2,6-difluorophenyl)-6,7-dihydro-5H-pyrrolo[3,4-d]pyrimidin-5-one] |
| 7.00 to 8.00 | 6.00 to 7.00 | COC(=O)[C@@H]1COCCN1C(=O)Cc1ccc(Nc2nc(-c3c(F)cccc3F)nc3c2C(=O)NC3)cc1 [Compound I-111, methyl (S)-4-(2-(4-((2-(2,6-difluorophenyl)-5-oxo-6,7-dihydro-5H-pyrrolo[3,4-d]pyrimidin-4-yl)amino)phenyl)acetyl)morpholine-3-carboxylate] |
| > 8.00 | 7.00 to 8.00 | CN1CC2(C1)CN(c1ccc(Nc3cc(-c4c(F)cccc4F)nc4c3C(=O)NC4)nc1)C2 [Compound I-187, 2-(2,6-difluorophenyl)-4-((5-(6-methyl-2,6-diazaspiro-[3.3]heptan-2-yl)pyridin-2-yl)amino)-6,7-dihydro-5-pyrrolo[3,4-b]pyridin-5-one] |

| SMILES | pKi (TYK2) | pKi (JAK2) |
| --- | --- | --- |
| CCNC(=O)C(C)(C)c1ccc(Nc2nc(-c3c(F)cccc3F)nc3c2C(=O)NC3)cc1 [Compound I-120, 2-(4-((2-(2,6-difluorophenyl)-5-oxo-6,7-dihydro-5H-pyrrolo[3,4-d]pyrimidin-4-yl)amino)phenyl)-N-ethyl-2-methylpropanamide] | > 8.00 | 6.00 to 7.00 |
| O=C(O)Cc1ccc(Nc2nc(-c3c(F)cncc3F)nc3c2C(=O)NC3)cc1 [Compound I-85, 2-(4-((2-(3,5-difluoropyridin-4-yl)-5-oxo-6,7-dihydro-5H-pyrrolo[3,4-d]pyrimidin-4-yl)amino)phenyl)acetic Acid] | 7.00 to 8.00 | < 6.00 |
| CCNC(=O)Cn1cc(Nc2nc(-c3c(F)cccc3F)nc3c2C(=O)NC3)cn1 [Compound I-69, 2-(4-((2-(2,6-difluorophenyl)-5-oxo-6,7-dihydro-5H-pyrrolo[3,4-d]pyrimidin-4-yl)amino)-1H-pyrazol-1-yl)-N-ethylacetamide] | 7.00 to 8.00 | < 6.00 |
| CC(C(=O)N1CCCCC1)c1ccc(Nc2nc(-c3c(F)cccc3F)nc3c2C(=O)NC3)cc1 (stereo not drawn) [Compound I-198, 2-(2,6-difluorophenyl)-4-((4-(1-oxo-1-(piperidin-1-yl)propan-2-yl)phenyl)amino)-6,7-dihydro-5H-pyrrolo[3,4-d]pyrimidin-5-one] | > 8.00 | 6.00 to 7.00 |
| CN(CC(C)(C)O)C(=O)Cc1ccc(Nc2nc(-c3c(F)cccc3F)nc3c2C(=O)NC3)cc1 [Compound I-193, 2-(4-((2-(2,6-difluorophenyl)-5-oxo-6,7-dihydro-5H-pyrrolo[3,4-d]pyrimidin-4-yl)amino)phenyl)-N-(2-hydroxy-2-methylpropyl)-N-methylacetamide] | > 8.00 | 6.00 to 7.00 |
| C[C@H](CO)NC(=O)Cn1cc(Nc2nc(-c3c(F)cccc3F)nc3c2C(=O)NC3)cn1 [Compound I-70, (R)-2-(4-((2-(2,6-difluorophenyl)-5-oxo-6,7-dihydro-5H-pyrrolo[3,4-d]pyrimidin-4-yl)amino)-1H-pyrazol-1-yl)-N-(1-hydroxypropan-2-yl)acetamide] | 7.00 to 8.00 | < 6.00 |
| CCNC(=O)Cc1ccc(Nc2cc(-c3c(F)cccc3Cl)nc3c2C(=O)NC3)nc1 [Compound I-199, 2-(6-((2-(2-chloro-6-fluorophenyl)-5-oxo-6,7-dihydro-5H-pyrrolo[3,4-b]pyridin-4-yl)amino)pyridin-3-yl)-N-ethylacetamide] | > 8.00 | 7.00 to 8.00 |

Reference: patent US10196390B2, “TYK2 inhibitors and uses thereof” (Nimbus Lakshmi, Inc., priority 2014, dated 2019)
